Measured values published in PubChem BioAssay (NCI).
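Briefly, cells in 96-well plates were exposed to five compound concentrations for 48 h, and endpoints were estimated by linear interpolation. GI50 is the concentration that inhibits growth by half. At the TGI there is no net growth.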

How the values were obtained:
Assay in all cases: NCI-60 cell line screen, 48 h
[1] = tested on: 786-0 renal
[2] = tested on: A498 renal
[3] = tested on: A549 NSCLC
[4] = tested on: ACHN renal
[5] = tested on: BT-549 breast
[6] = tested on: CAKI-1 renal
[7] = tested on: CCRF-CEM leukemia
[8] = tested on: COLO 205 colon
[9] = tested on: DU-145 prostate
[10] = tested on: EKVX NSCLC
[11] = tested on: HCC-2998 colon
[12] = tested on: HCT-116 colon
[13] = tested on: HCT-15 colon
[14] = tested on: HL-60(TB) leukemia
[15] = tested on: HOP-62 NSCLC
[16] = tested on: HOP-92 NSCLC
[17] = tested on: HS 578T breast
[18] = tested on: HT29 colon
[19] = tested on: IGROV1 ovarian
[20] = tested on: K-562 leukemia
[21] = tested on: KM12 colon
[22] = tested on: LOX IMVI melanoma
[23] = tested on: M14 melanoma
[24] = tested on: MALME-3M melanoma
[25] = tested on: MCF7 breast
[26] = tested on: MDA-MB-231 breast
[27] = tested on: MDA-MB-435
[28] = tested on: MDA-MB-468 breast
[29] = tested on: MOLT-4 leukemia
[30] = tested on: NCI-H226 lung
[31] = tested on: NCI-H23 lung
[32] = tested on: NCI-H460 lung
[33] = tested on: NCI-H522 lung
[34] = tested on: NCI/ADR-RES ovarian
[35] = tested on: OVCAR-3 ovarian
[36] = tested on: OVCAR-4 ovarian
[37] = tested on: OVCAR-5 ovarian
[38] = tested on: OVCAR-8 ovarian
[39] = tested on: PC-3 prostate
[40] = tested on: RPMI-8226 leukemia
[41] = tested on: RXF 393 renal
[42] = tested on: SF-268 CNS
[43] = tested on: SF-295 CNS
[44] = tested on: SF-539 CNS
[45] = tested on: SK-MEL-2 melanoma
[46] = tested on: SK-MEL-28 melanoma
[47] = tested on: SK-MEL-5 melanoma
[48] = tested on: SK-OV-3 ovarian
[49] = tested on: SN12C renal
[50] = tested on: SNB-19 CNS
[51] = tested on: SNB-75 CNS
[52] = tested on: SW-620 colon
[53] = tested on: T-47D breast
[54] = tested on: TK-10 renal
[55] = tested on: U251 CNS
[56] = tested on: UACC-257 melanoma
[57] = tested on: UACC-62 melanoma
[58] = tested on: UO-31 renal

## Cn1cc(NC(=O)c2cc(NC(=O)c3ccc(/C=C/c4ccccc4)cc3)cn2C)cc1C(=O)NCCCN1CCOCC1
[1]
  GI50: 8.59 µM
  TGI: > 28 µM
[2]
  GI50: > 28 µM
  TGI: > 28 µM
[3]
  GI50: > 28 µM
  TGI: > 28 µM
[4]
  GI50: 18.6 µM
  TGI: > 28 µM
[5]
  GI50: 4.84 µM
  TGI: 18.4 µM
[6]
  GI50: 15.3 µM
  TGI: > 28 µM
[7]
  GI50: 5.74 µM
  TGI: > 28 µM
[8]
  GI50: > 28 µM
  TGI: > 28 µM
[9]
  GI50: 10.1 µM
  TGI: > 28 µM
[10]
  GI50: 16.6 µM
  TGI: > 28 µM
[11]
  GI50: 16.6 µM
  TGI: > 28 µM
[12]
  GI50: 7.39 µM
  TGI: > 28 µM
[13]
  GI50: 7.41 µM
  TGI: > 28 µM
[14]
  GI50: 7.49 µM
  TGI: > 28 µM
[15]
  GI50: 9.43 µM
  TGI: > 28 µM
[16]
  GI50: 3.15 µM
  TGI: 14.9 µM
[17]
  GI50: 6.14 µM
  TGI: > 28 µM
[18]
  GI50: 4.85 µM
  TGI: 19.6 µM
[19]
  GI50: > 28 µM
  TGI: > 28 µM
[20]
  GI50: 4.79 µM
  TGI: 16.1 µM
[21]
  GI50: 8.07 µM
  TGI: > 28 µM
[22]
  GI50: 4.59 µM
  TGI: 9.32 µM
[23]
  GI50: 14.7 µM
  TGI: > 28 µM
[24]
  GI50: 13.8 µM
  TGI: > 28 µM
[25]
  GI50: 3.57 µM
  TGI: > 28 µM
[26]
  GI50: 9.18 µM
  TGI: > 28 µM
[27]
  GI50: 8.59 µM
  TGI: > 28 µM
[28]
  GI50: 5.88 µM
  TGI: 18.5 µM
[29]
  GI50: 7.96 µM
  TGI: > 28 µM
[30]
  GI50: 24.1 µM
  TGI: > 28 µM
[31]
  GI50: 13.4 µM
  TGI: > 28 µM
[32]
  GI50: 9.62 µM
  TGI: > 28 µM
[33]
  GI50: 6.56 µM
  TGI: 25.2 µM
[34]
  GI50: 7.31 µM
  TGI: 24.2 µM
[35]
  GI50: 6.82 µM
  TGI: > 28 µM
[36]
  GI50: > 28 µM
  TGI: > 28 µM
[37]
  GI50: > 28 µM
  TGI: > 28 µM
[38]
  GI50: 7.21 µM
  TGI: > 28 µM
[39]
  GI50: 13 µM
  TGI: > 28 µM
[40]
  GI50: 3.35 µM
  TGI: > 28 µM
[41]
  GI50: 2.08 µM
  TGI: 18 µM
[42]
  GI50: 21.5 µM
  TGI: > 28 µM
[43]
  GI50: 17.8 µM
  TGI: > 28 µM
[44]
  GI50: 5.8 µM
  TGI: 16.5 µM
[45]
  GI50: 4.94 µM
  TGI: 16.3 µM
[46]
  GI50: > 28 µM
  TGI: > 28 µM
[47]
  GI50: 14 µM
  TGI: > 28 µM
[48]
  GI50: > 28 µM
  TGI: > 28 µM
[49]
  GI50: 5.28 µM
  TGI: > 28 µM
[50]
  GI50: > 28 µM
  TGI: > 28 µM
[51]
  GI50: 4.42 µM
  TGI: 26.3 µM
[52]
  GI50: 6.89 µM
  TGI: 18.7 µM
[53]
  GI50: 5.59 µM
  TGI: > 28 µM
[54]
  GI50: 15.1 µM
  TGI: > 28 µM
[55]
  GI50: 10.5 µM
  TGI: > 28 µM
[56]
  GI50: 19.2 µM
  TGI: > 28 µM
[57]
  GI50: 21.2 µM
  TGI: > 28 µM
[58]
  GI50: 15.2 µM
  TGI: > 28 µM
